Test results as given in US6869960B2, “N-substituted spiropiperidine compounds as ligands for ORL-1 receptor” (Pfizer Inc., priority 2002, dated 2005).

Molecular target: T1, human ORL1 receptor (Homo sapiens, UniProt P41146)
T1 construct: expressed in transfected cells; host or cells: HEK-293 cell membranes
Assay: ORL1 receptor functional assay ([35S]GTPγS binding, nociceptin stimulated)
Assay type: biochemical
Conditions: at 10 nM nociceptin stimulation; human ORL1 receptor transfected HEK-293 cell membranes
Method: IC50(ORL1-receptors)nM/IC50(mu-receptors)nM<1.0 ORL1 Receptor Functional Assay • The human ORL1 receptor transfected HEK-293 cell membranes are incubated with 400 pM [^35S]GTPγS, 10 or 50 nM nociceptin and various concentrations of test compounds in assay buffer (20 mM HEPES, 100 mM NaCl, 5 mM MgCl2, 1 mM EDTA, […], 1 mM DTT, pH7.4) containing 1.5 mg of wheat germ agglutinin-coated SPA beads for 60 or 90 min at 25° C. in a final volume of 200 μl. Basal binding is assessed in the absence of nociceptin and non-specific binding is defined by the addition of unlabelled […]. Membrane-bound radioactivity is detected by a Liquid Scintillation Counter. […] Analgesic Tests Tail Flick Test in Mice • The latency time to withdrawal f the tail from radiant heat stimulation is recorded before and after administration of test compounds. Cut-off time is set to 8 sec. Acetic Acid Writhing Test in Mice • Acetic acid saline solution of 0.7% (v/v) is injected intraperitoneally (0.16 ml/10 g body weight) to mice. Test compounds are administered before acetic acid injection. As soon as acetic acid injection, animals are placed in a 1 liter beaker and writhing is recorded for 15 min. Formalin Licking Test in Mice • Formalin-induced hind paw licking is initiated by a 20 micro liters subcutaneous injection of a 2% formaline solution into a hind paw of mice. […]

T1 sequence (P41146 whole entry): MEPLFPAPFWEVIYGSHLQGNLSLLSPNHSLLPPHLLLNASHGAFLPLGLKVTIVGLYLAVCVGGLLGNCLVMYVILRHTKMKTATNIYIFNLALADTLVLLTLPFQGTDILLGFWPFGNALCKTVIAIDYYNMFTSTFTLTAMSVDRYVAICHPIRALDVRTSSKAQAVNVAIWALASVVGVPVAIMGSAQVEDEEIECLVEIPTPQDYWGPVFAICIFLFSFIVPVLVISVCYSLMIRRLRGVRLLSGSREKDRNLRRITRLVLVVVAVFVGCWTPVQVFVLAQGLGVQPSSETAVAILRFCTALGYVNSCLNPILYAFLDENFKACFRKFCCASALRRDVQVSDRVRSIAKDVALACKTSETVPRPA

| SMILES | IC50 [nM] |
| --- | --- |
| O=C1COc2cccc3c2N1CC(CN1CCC2(CCc4ccccc42)CC1)C3 (centres unmarked) [Example 20, 6-(2,3-Dihydro-1′H-spiro[indene-1,4′piperidin]-1′-ylmethyl)-6,7-dihydro-5H-[1,4]oxazino[2,3,4-ij]quinolin-3(2H)-one] | 13 |
| CN1CC2(CCN(CC3Cc4cccc(O)c4NC3=O)CC2)c2ccccc21 (centres unmarked) [Example 31, 8-Hydroxy-3-[(1-methyl-1,2-dihydro-1′H-spiro[indole-3,4′-piperidin]-1′-yl)methyl]-3,4-dihydroquinolin-2(1H)-one] | 13 |
